# According to PubChem BioAssay (NCI):
#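 Dose response: 5 concentrations. Exposure: 48 h. Format: 96-well plates. Endpoint: linear interpolation; highest concentration if not reached. Here, GI50 denotes the concentration required for 50% inhibition of growth. TGI: total growth inhibition.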
# How the values were obtained:
# Assay in all cases: DTP human tumour cell line panel, 48 h
# [1] = system: 786-0 renal
# [2] = system: A498 renal
# [3] = system: A549 NSCLC
# [4] = system: ACHN renal
# [5] = system: BT-549 breast
# [6] = system: CAKI-1 renal
# [7] = system: CCRF-CEM leukemia
# [8] = system: COLO 205 colon
# [9] = system: EKVX NSCLC
# [10] = system: HCC-2998 colon
# [11] = system: HCT-116 colon
# [12] = system: HCT-15 colon
# [13] = system: HOP-62 NSCLC
# [14] = system: HOP-92 NSCLC
# [15] = system: HS 578T breast
# [16] = system: HT29 colon
# [17] = system: IGROV1 ovarian
# [18] = system: K-562 leukemia
# [19] = system: KM12 colon
# [20] = system: LOX IMVI melanoma
# [21] = system: M14 melanoma
# [22] = system: MALME-3M melanoma
# [23] = system: MCF7 breast
# [24] = system: MDA-MB-231 breast
# [25] = system: MDA-MB-435
# [26] = system: MOLT-4 leukemia
# [27] = system: NCI-H226 lung
# [28] = system: NCI-H23 lung
# [29] = system: NCI-H460 lung
# [30] = system: NCI-H522 lung
# [31] = system: NCI/ADR-RES ovarian
# [32] = system: OVCAR-3 ovarian
# [33] = system: OVCAR-4 ovarian
# [34] = system: OVCAR-5 ovarian
# [35] = system: OVCAR-8 ovarian
# [36] = system: PC-3 prostate
# [37] = system: RPMI-8226 leukemia
# [38] = system: RXF 393 renal
# [39] = system: SF-268 CNS
# [40] = system: SF-295 CNS
# [41] = system: SF-539 CNS
# [42] = system: SK-MEL-2 melanoma
# [43] = system: SK-MEL-5 melanoma
# [44] = system: SK-OV-3 ovarian
# [45] = system: SN12C renal
# [46] = system: SNB-19 CNS
# [47] = system: SR leukemia
# [48] = system: SW-620 colon
# [49] = system: T-47D breast
# [50] = system: TK-10 renal
# [51] = system: U251 CNS
# [52] = system: UACC-257 melanoma
# [53] = system: UACC-62 melanoma
# [54] = system: UO-31 renal
# [55] = system: DU-145 prostate
# [56] = system: HL-60(TB) leukemia
# [57] = system: SK-MEL-28 melanoma
smiles,measurement,setting,value
CNn1c(-c2ccc(C)cc2)n[nH]c1=O,TGI,[1],> 100 µM
same,TGI,[2],> 100 µM
same,TGI,[3],> 100 µM
same,TGI,[4],> 100 µM
same,TGI,[5],> 100 µM
same,TGI,[6],> 100 µM
same,TGI,[7],> 100 µM
same,TGI,[8],> 100 µM
same,TGI,[9],> 100 µM
same,TGI,[10],> 100 µM
same,TGI,[11],> 100 µM
same,TGI,[12],> 100 µM
same,TGI,[13],> 100 µM
same,TGI,[14],> 100 µM
same,TGI,[15],> 100 µM
same,TGI,[16],> 100 µM
same,TGI,[17],> 100 µM
same,TGI,[18],> 100 µM
same,TGI,[19],> 100 µM
same,TGI,[20],> 100 µM
same,TGI,[21],> 100 µM
same,TGI,[22],> 100 µM
same,TGI,[23],> 100 µM
same,TGI,[24],> 100 µM
same,TGI,[25],> 100 µM
same,TGI,[26],> 100 µM
same,TGI,[27],> 100 µM
same,TGI,[28],> 100 µM
same,TGI,[29],> 100 µM
same,TGI,[30],> 100 µM
same,TGI,[31],> 100 µM
same,TGI,[32],> 100 µM
same,TGI,[33],> 100 µM
same,TGI,[34],> 100 µM
same,TGI,[35],> 100 µM
same,TGI,[36],> 100 µM
same,TGI,[37],> 100 µM
same,TGI,[38],> 100 µM
same,TGI,[39],> 100 µM
same,TGI,[40],> 100 µM
same,TGI,[41],> 100 µM
same,TGI,[42],> 100 µM
same,TGI,[43],> 100 µM
same,TGI,[44],> 100 µM
same,TGI,[45],> 100 µM
same,TGI,[46],> 100 µM
same,TGI,[47],> 100 µM
same,TGI,[48],> 100 µM
same,TGI,[49],> 100 µM
same,TGI,[50],> 100 µM
same,TGI,[51],> 100 µM
same,TGI,[52],> 100 µM
same,TGI,[53],> 100 µM
same,TGI,[54],> 100 µM
C#CCOc1cccc(Nc2ncnc3cc(NC(=O)C=C)ccc23)c1,GI50,[1],5.97 µM
same,TGI,[1],48.1 µM
same,GI50,[2],4.25 µM
same,TGI,[2],46.6 µM
same,GI50,[3],9.44 µM
same,TGI,[3],> 100 µM
same,GI50,[4],4.74 µM
same,TGI,[4],> 100 µM
same,GI50,[5],5.3 µM
same,TGI,[5],> 100 µM
same,GI50,[6],6.08 µM
same,TGI,[6],> 100 µM
same,GI50,[7],4.08 µM
same,TGI,[7],> 100 µM
same,GI50,[8],5.41 µM
same,TGI,[8],> 100 µM
same,GI50,[55],3.55 µM
same,TGI,[55],> 100 µM
same,GI50,[9],14.8 µM
same,TGI,[9],> 100 µM
same,GI50,[10],11.6 µM
same,TGI,[10],60.4 µM
same,GI50,[11],4.02 µM
same,TGI,[11],> 100 µM
same,GI50,[12],3.44 µM
same,TGI,[12],> 100 µM
same,GI50,[56],3.84 µM
same,TGI,[56],45.7 µM
same,GI50,[13],13.4 µM
same,TGI,[13],> 100 µM
same,GI50,[14],4.77 µM
same,TGI,[14],58.4 µM
same,GI50,[15],5.87 µM
same,TGI,[15],89.8 µM
same,GI50,[16],3.66 µM
same,TGI,[16],> 100 µM
same,GI50,[17],10.7 µM
same,TGI,[17],> 100 µM
same,GI50,[18],2.79 µM
same,TGI,[18],> 100 µM
same,GI50,[19],10.4 µM
same,TGI,[19],> 100 µM
same,GI50,[20],3.73 µM
same,TGI,[20],17.3 µM
same,GI50,[21],6.46 µM
same,TGI,[21],> 100 µM
same,GI50,[22],17.6 µM
same,TGI,[22],> 100 µM
same,GI50,[23],3.65 µM
same,TGI,[23],> 100 µM
same,GI50,[24],6.47 µM
same,TGI,[24],> 100 µM
same,GI50,[25],2.08 µM
same,TGI,[25],> 100 µM
same,GI50,[26],4.56 µM
same,TGI,[26],69.1 µM
same,GI50,[27],29.7 µM
same,TGI,[27],> 100 µM
same,GI50,[28],26.6 µM
same,TGI,[28],> 100 µM
same,GI50,[29],10.4 µM
same,TGI,[29],> 100 µM
same,GI50,[30],2.8 µM
same,TGI,[30],34.2 µM
same,GI50,[31],9.66 µM
same,TGI,[31],> 100 µM
same,GI50,[32],3.7 µM
same,TGI,[32],74.6 µM
same,GI50,[33],29.6 µM
same,TGI,[33],> 100 µM
same,GI50,[34],14.1 µM
same,TGI,[34],> 100 µM
same,GI50,[35],7.72 µM
same,TGI,[35],57.8 µM
same,GI50,[36],8.36 µM
same,TGI,[36],> 100 µM
same,GI50,[37],4.56 µM
same,TGI,[37],38.8 µM
same,GI50,[38],2.44 µM
same,TGI,[38],13.3 µM
same,GI50,[39],12.6 µM
same,TGI,[39],> 100 µM
same,GI50,[40],14.6 µM
same,TGI,[40],> 100 µM
same,GI50,[41],2.89 µM
same,TGI,[41],14 µM
same,GI50,[42],20.9 µM
same,TGI,[42],> 100 µM
same,GI50,[57],23 µM
same,TGI,[57],> 100 µM
same,GI50,[43],17.3 µM
same,TGI,[43],> 100 µM
same,GI50,[44],7.88 µM
same,TGI,[44],> 100 µM
same,GI50,[45],7.63 µM
same,TGI,[45],> 100 µM
same,GI50,[46],23.8 µM
same,TGI,[46],> 100 µM
same,GI50,[47],2.11 µM
same,TGI,[47],> 100 µM
same,GI50,[48],3.15 µM
same,TGI,[48],27.8 µM
same,GI50,[49],3.98 µM
same,TGI,[49],> 100 µM
same,GI50,[50],4.05 µM
same,TGI,[50],35.6 µM
same,GI50,[51],17.4 µM
same,TGI,[51],> 100 µM
same,GI50,[52],32.3 µM
same,TGI,[52],> 100 µM
same,GI50,[53],9.82 µM
same,TGI,[53],> 100 µM
same,GI50,[54],3.51 µM
same,TGI,[54],75.6 µM
